Assay results taken from ChEMBL document CHEMBL5126521, “Analgesic Opioid Ligand Discovery Based on Nonmorphinan Scaffolds Derived from Natural Sources” (J Med Chem, 2022).
Square brackets hold non-standard residues; d marks the D form. Peptide text beside a SMILES is read from it. Sar = CNCC(=O)O

Assays:
[1] = Toxicity in sc dosed mouse assessed as antinociceptive activity tolerance; format: organism-based; conditions: in vivo
[2] = system: Mus musculus; assay: Antinociceptive activity in sc dosed mouse; format: functional
[3] = system: Mus musculus; assay: Antinociceptive activity in po dosed mouse by tail flick assay; format: functional
[4] = Displacement of [3H]DPDPE from guinea pig brain membrane DOP incubated for 2.5 hr by scintillation counter analysis; format: cell membranes, Cavia porcellus
[5] = biological target: T1, Mu-type opioid receptor (Cavia porcellus, UniProt P97266); assay: Displacement of [3H]DAMGO from guinea pig brain membrane MOP incubated for 1 hr by scintillation counter analysis; format: cell membranes
[6] = biological target: Delta-type opioid receptor (Rattus norvegicus, UniProt P33533); assay: Agonist activity at recombinant rat DOP stably expressed in CHO-K1 cell membrane assessed as [35S]GTPgammaS binding; format: functional, cell membranes
[7] = Toxicity in po dosed mouse assessed as antinociceptive activity tolerance by tail flick assay; format: organism-based; conditions: in vivo
[8] = biological target: Mu-type opioid receptor (Rattus norvegicus, UniProt P33535); assay: Agonist activity at recombinant rat MOP stably expressed in CHO-K1 cell membrane assessed as [35S]GTPgammaS binding; format: functional, cell membranes
[9] = biological target: T2, Kappa-type opioid receptor (Cavia porcellus, UniProt P41144); assay: Displacement of [3H]U69593 from guinea pig brain membrane KOP incubated for 1 hr by scintillation counter analysis; format: cell membranes
[10] = system: Mus musculus; assay: Antinociceptive activity in mouse administered po by tail pressure test; format: functional
[11] = biological target: T3, Delta-type opioid receptor (Mus musculus, UniProt P32300); assay: Displacement of [3H]deltorphin-II from mouse spinal cord DOP measured after 60 mins by liquid scintillation counter analysis; format: tissue-based
[12] = biological target: T4, Mu-type opioid receptor (Mus musculus, UniProt P42866); assay: Displacement of [3H]DAMGO from mouse spinal cord MOP measured after 60 mins by liquid scintillation counter analysis; format: tissue-based
[13] = biological target: Kappa-type opioid receptor (Mus musculus, UniProt P33534); assay: Displacement of [3H]U-69593 from mouse spinal cord KOP measured after 60 mins by liquid scintillation counter analysis; format: tissue-based
[14] = system: Mus musculus; assay: Antinociceptive activity in mouse administered sc by tail pressure test; format: functional
[15] = organism: Mus musculus; assay: Antinociceptive activity in mouse […]; format: functional; conditions: time 2 hrs
[16] = Toxicity in rat assessed as inhibition of gastrointestinal transit at 100 to 300 pmol icv or IT by charcoal meal test; conditions: in vivo, icv_or_intrathecal, dose 100-300 pmol
[17] = system: Rattus norvegicus; assay: Antinociceptive activity in rat administered sc; format: functional
[18] = Displacement of [3H]DPDPE from calf frontal cortex membrane Delta-type opioid receptor by competitive binding assay; format: cell membranes, Bos taurus
[19] = system: Rattus norvegicus; assay: Antinociceptive activity in rat administered iv; format: functional
[20] = system: Mus musculus; assay: Antinociceptive activity in mouse administered IT; format: functional
[21] = system: Mus musculus; assay: Antinociceptive activity in mouse administered po; format: functional
[22] = biological target: T2, Kappa-type opioid receptor; assay: Displacement of [3H]U69593 from guinea pig cerebellum KOP by competitive binding assay; format: tissue-based
[23] = organism: Rattus norvegicus; assay: Antinociceptive activity in rat; format: functional
[24] = system: Rattus norvegicus; assay: Antinociceptive activity in rat administered IT; format: functional
[25] = biological target: Mu-type opioid receptor (Cavia porcellus) (UniProt P97266); assay: (§1) Antagonist activity at guinea pig ileum MOP; format: functional, tissue-based; conditions: filed as antagonist
[26] = biological target: T1, Mu-type opioid receptor; assay: as §1; format: functional, tissue-based
[27] = biological target: Mu-type opioid receptor (Bos taurus, UniProt P79350); assay: Displacement of [3H]DAMGO from calf thalamus membrane MOP by competitive binding assay; format: cell membranes
[28] = biological target: T3, Delta-type opioid receptor; assay: Displacement of [3H]DPDPE from mouse brain cerebellum DOP incubated for 2 hrs by liquid scintillation counter analysis; format: tissue-based
[29] = system: Mus musculus; assay: Antinociceptive activity in mouse administered sc; format: functional
[30] = biological target: T4, Mu-type opioid receptor; assay: Displacement of [3H]DAMGO from mouse brain cerebellum MOP incubated for 2 hrs by liquid scintillation counter analysis; format: tissue-based
[31] = system: Mus musculus; assay: Antinociceptive activity in mechanical allodynia mouse model administered sc; format: functional
[32] = system: Mus musculus; assay: Antinociceptive activity in thermal hyperalgesia mouse model administered sc; format: functional
[33] = biological target: T5, Mu-type opioid receptor (Homo sapiens, UniProt P35372); assay: Binding affinity to MOP (unknown origin)
[34] = biological target: T6, Delta-type opioid receptor (Homo sapiens, UniProt P41143); assay: Binding affinity to DOP (unknown origin)
[35] = biological target: T4, Mu-type opioid receptor; assay: Antagonist activity at mouse vas deferns MOP; format: functional
[36] = biological target: T5, Mu-type opioid receptor; assay: Displacement of [3H]DAMGO from MOP (unknown origin) stably expressed in HEK293 cells by liquid scintillation counter analysis; format: cell-based
[37] = Stability in mouse serum assessed as half life; format: ADME, cell-free
[38] = system: Mus musculus; assay: Antinociceptive activity in Kunming mouse assessed tail flick response in warm water administered icv; format: functional
[39] = system: Mus musculus; assay: Antinociceptive activity in Kunming mouse assessed as tail flick response in warm water administered iv; format: functional
[40] = biological target: T5, Mu-type opioid receptor; assay: Agonist activity at MOP (unknown origin) stably expressed in HEK293 cells assessed as forskolin stimulated cAMP accumulation incubated for 30 mins by radioactivity based scintillation counter analysis relative to control; format: functional, cell-based; conditions: filed as agonist
[41] = biological target: T6, Delta-type opioid receptor; assay: Displacement of [3H]DPDPE from DOP (unknown origin) stably expressed in HEK293 cells by liquid scintillation counter analysis; format: cell-based
[42] = Stability in mouse brain homogenate assessed as half life; format: ADME, tissue-based
[43] = biological target: T5, Mu-type opioid receptor; assay: Agonist activity at MOP (unknown origin) stably expressed in HEK293 cells assessed as forskolin stimulated cAMP accumulation incubated for 30 mins by radioactivity based scintillation counter analysis; format: functional, cell-based
[44] = organism: Mus musculus; assay: Antinociceptive activity in mouse by tail pressure test; format: functional; conditions: Mus musculus; read-out: ED50
[45] = system: Mus musculus; assay: Antinociceptive activity in mouse administered icv by tail pressure test; format: functional
[46] = system: Mus musculus; assay: Antinociceptive activity in mouse assessed as tail-flick latency administered icv […]; format: functional
[47] = system: Mus musculus; assay: Antinociceptive activity in mouse administered IT by tail pressure test; format: functional
[48] = organism: Mus musculus; assay: Antinociceptive activity in mouse by hot plate test
[49] = system: Mus musculus; assay: Antinociceptive activity in mouse administered icv; format: functional
[50] = system: Rattus norvegicus; assay: Antinociceptive activity in rat at 2.5 to 5 mg/kg, icv

With `CC[C@@H]1CN2CC[C@]3(O)c4c(cccc4OC)N[C@@H]3[C@@H]2C[C@@H]1/C(=C\OC)C(=O)OC` the ED50 [1] was 0.35 mg/kg, the ED50 [2] was 0.3 mg/kg and the ED50 [3] was 1.3 mg/kg. For the same molecule, the Ki [4] was 16 nM, the Ki [5] was 6.4 nM and the EC50 [6] was 1490 nM. For the same molecule, the ED50 [7] was 2.2 mg/kg, the EC50 [8] was 250 nM and the Ki [9] was 55 nM.
With `CN(CCC(=O)O)C(=O)[C@H](Cc1ccccc1)NC(=O)[C@@H](CCCNC(=N)N)NC(=O)[C@H](Cc1ccc(O)cc1)NC(=N)N` the ED50 [10] was 5.8 mg/kg, the Ki [11] was > 1000 nM and the Ki [12] was 12.9 nM. The Ki [13] was > 1000 nM, the ED50 [14] was 0.09 mg/kg and the ED50 [15] was 0.07 mg/kg.
For `CN(CC(=O)O)C(=O)[C@H](Cc1ccccc1)NC(=O)[C@@H](CCCN=C(N)N)NC(=O)[C@@H](N)Cc1ccc(O)cc1` (H-Y[dR]F[Sar]-OH), the ED50 [16] was 0.053 mg/kg, the ED50 [17] was 0.61 mg/kg and the Ki [18] was 562 nM. It also gave an ED50 [19] of 0.8 µmol/kg, an ED50 [20] of 4.5 pmol and an ED50 [21] of 26 µmol/kg. The Ki [22] was > 10000 nM, the ED50 [23] was 4.1 pmol and the ED50 [24] was 18 pmol. It also gave an IC20 [25] of 21 nM, an IC50 [26] of 6.9 nM and a Ki [27] of 0.5 nM.
For `N=C(N)NCCC[C@@H](NC(=O)[C@H](Cc1ccc(O)cc1)NC(=N)N)C(=O)N[C@@H](Cc1ccccc1)C(=O)NCCC(=O)O`, the Ki [11] was > 1000 nM, the ED50 [20] was 0.34 pmol and the ED50 [21] was 19 mg/kg. For the same molecule, the Ki [12] was 12.9 nM, the Ki [28] was 160 nM and the Ki [13] was > 1000 nM. For the same molecule, the ED50 [29] was 0.24 mg/kg and the Ki [30] was 0.67 nM.
In the case of `NCCCC[C@H](NC(=O)[C@H](Cc1ccccc1)NC(=O)[C@@H](CCCN=C(N)N)NC(=O)[C@@H](N)Cc1ccc(O)cc1)C(N)=O`, the ED50 [31] is reported as 4.2 pmol, the ED50 [32] is reported as 0.06 pmol and the Ki [33] is reported as 0.14 nM. It also gave a Ki [34] of 19200 nM, an IC50 [35] of 781 nM and an ED50 [24] of 2.37 pmol.
For `CC[C@@H]1CN2CC[C@]3(O)c4c(ccc(F)c4OC)N[C@@H]3[C@@H]2C[C@@H]1/C(=C\OC)C(=O)OC`, the ED50 [1] was 0.09 mg/kg, the ED50 [2] was 0.06 mg/kg and the ED50 [3] was 0.26 mg/kg. The Ki [4] was 7 nM, the Ki [5] was 2.1 nM and the EC50 [6] was 61 nM. For the same molecule, the ED50 [7] was 0.45 mg/kg, the EC50 [8] was 18 nM and the Ki [9] was 29 nM.
In the case of `C=C(C(N)=O)[C@@H](NC(=O)[C@H](Cc1c[nH]c2ccccc12)NC(=O)[C@@H](C)N(C)C(=O)[C@@H](N)Cc1c(C)cc(O)cc1C)c1ccco1`, the Ki [36] is reported as 0.011 nM, the half-life [37] is reported as ≥ 5 h and the ED50 [38] is reported as 0.000695 µmol/kg. The ED50 [39] was 0.382 mg/kg, the Emax [40] was 98.3% and the Ki [41] was 33.3 nM. For the same molecule, the half-life [42] was ≥ 5 h and the EC50 [43] was 0.0018 nM.
`CN1CC[C@]23c4c5ccc(O)c4O[C@H]2[C@@H](O)C=C[C@H]3[C@H]1C5` [MORPHINE] gave an ED50 [44] of 77.2 µmol/kg, an ED50 [45] of 1.05 nmol and an ED50 [19] of 1.6 µmol/kg. For the same molecule, the ED50 [46] was 17.3 nmol, the ED50 [47] was 0.72 pmol and the ED50 [48] was 11.3 µmol/kg. It also gave an ED50 [49] of 8.7 nmol, an ED50 ([23]; Rattus norvegicus, read-out: ED50) of 5.8 µmol/kg and an ED50 [50] of 169 µmol/kg. It also gave an ED50 [14] of 12.2 µmol/kg.
